Assay results as given in patent publication US8241862B2, “Perinucleolar compartment as a cancer marker” (Northwestern University, priority 2002, dated 2012).
*1 amine or outer side, *2 acyl side, *3 side chain or, on linkers, in order; H or OH if unused. Where a SMILES comes first, the peptide text is derived from it. Bridges are numbered along the chain shown (N, C = ends). Roman numbers before positions name the chains, in order. [ ]: non-standard residue; d: D form. Actinocin(9to1) = Cc1c2oc3c(C)ccc(C(=O)[*:1])c3nc-2c(C(=O)[*:2])c(N)c1=O; NMeV = CN[C@H](C(=O)O)C(C)C; Sar = CNCC(=O)O

Tested on: HeLa cells
Test: Effect of chemotherapeutic drugs on PNC prevalence in cultured HeLa cells
Assay type: cell-based, human
Experimental: Cultured HeLa cells, whose PNC prevalence is above 95%, were treated with various chemotherapeutic drugs.

O=c1[nH]cc(F)c(=O)[nH]1 [5′-fluorouracil]
Effect on PNC (1 to 5 μg/ml, 16 hours): No effect on PNC structure

COc1cc(NS(C)(=O)=O)ccc1Nc1c2ccccc2nc2ccccc12 [AMSA]
Effect on PNC (5 to 40 μM, 16 hours): No effect on PNC structure

Cc1c2oc3c(C)ccc(C(=O)N[C@@H]4C(=O)N[C@H](C(C)C)C(=O)N5CCC[C@H]5C(=O)N(C)CC(=O)N(C)[C@@H](C(C)C)C(=O)O[C@@H]4C)c3nc-2c(C(=O)N[C@@H]2C(=O)N[C@H](C(C)C)C(=O)N3CCC[C@H]3C(=O)N(C)CC(=O)N(C)[C@@H](C(C)C)C(=O)O[C@@H]2C)c(N)c1=O [Actinomycin D] (I: T[dV]P[Sar][NMeV] / II: T[dV]P[Sar][NMeV]; ester I:1-I:C, II:1-II:C; linker I:N-II:N via Actinocin(9to1))
Effect on PNC (cell negative for PNC) (0.04 μg/ml, 2 hours): 100% cell negative for PNC

COc1cccc2c1C(=O)c1c(O)c3c(c(O)c1C2=O)C[C@@](O)(C(=O)CO)C[C@@H]3O[C@H]1C[C@H](N)[C@H](O)[C@H](C)O1 [Adriamycin]
Effect on PNC (5 to 40 μM, 16 hours): No effect on PNC structure

CC[C@@]1(O)C(=O)OCc2c1cc1n(c2=O)Cc2cc3ccccc3nc2-1 [Campothecin]
Effect on PNC (cell negative for PNC) (1.25 to 2.5 μg/ml, 1 hour): 100% cell negative for PNC

N.N.[Cl][Pt][Cl] [Cisplatin]
Effect on PNC (cell negative for PNC) (0.5 μg/ml, 5 hours): 95% cell negative for PNC

Nc1ccn([C@@H]2O[C@H](CO)[C@@H](O)[C@@H]2O)c(=O)n1 [Cytosine Arabinoside]
Effect on PNC (10 to 40 μg/ml, 16 hours): No effect on PNC structure

NC(=O)NO [Hydroxyurea]
Effect on PNC (0.5 to 1.5 μM, 16 hours): No effect on PNC structure

CN(Cc1cnc2nc(N)nc(N)c2n1)c1ccc(C(=O)N[C@@H](CCC(=O)O)C(=O)O)cc1 [Methotrexate]
Effect on PNC (cells negative for PNC) (0.5 μg/ml, 16 hours): 30% cells negative for PNC
Effect on PNC (cells negative for PNC) (1.0 μg/ml, 16 hours): 60% cells negative for PNC
Effect on PNC (cells negative for PNC) (2.5 μg/ml, 16 hours): 80% cells negative for PNC
Response of PNC prevalence to dose (0.5 to 2.5 μg/ml, 16 hours): dose-dependent

CC(=O)O[C@H]1C(=O)[C@@]2(C)[C@H]([C@H](OC(=O)c3ccccc3)[C@]3(O)C[C@H](OC(=O)[C@H](O)[C@@H](NC(=O)c4ccccc4)c4ccccc4)C(C)=C1C3(C)C)[C@]1(OC(C)=O)CO[C@@H]1C[C@@H]2O [Paclitaxel]
Effect on PNC (5 to 40 μM, 16 hours): No effect on PNC structure

CC[C@]1(O)C[C@H]2CN(CCc3c([nH]c4ccccc34)[C@@](C(=O)OC)(c3cc4c(cc3OC)N(C=O)[C@H]3[C@@](O)(C(=O)OC)[C@H](OC(C)=O)[C@]5(CC)C=CCN6CC[C@]43[C@@H]65)C2)C1 [Vincristine]
Effect on PNC (5 to 40 μM, 16 hours): No effect on PNC structure
